Data reported in patent publication US8575107B2, “Clusterin derived peptide” (Compugen Ltd., priority 2008, dated 2013).
Where a SMILES comes first, the peptide text is derived from it.

Key:
[1] = system: HT29 colorectal adenocarcinoma cells; assay: MTT assay, growth of HT29 cells treated with CGEN-CL1; assay type: cell-based
Experimental: (§1) CGEN-CL1 as synthesized in Example 1 was analyzed for its ability to induce growth arrest in various cancer cell lines, such as: breast cancer cell line MCF-7 (Adenocarcinoma, Breast, HTB-22, ATCC), PC3 (Adenocarcinoma, Prostate, CRL-1435, ATCC), A549 (carcinoma, Lung, CCL-185, ATCC), HT-29 (Colorectal Adenocarcinoma, Colon, HTB-38, ATCC) and SK-mel 5 (Melanoma, Skin, HTB70, ATCC).
HT29 cells were seeded at 10,000 cells per well in 150 μl of media (DMEM medium+5% FBS) in a 96 well plate.
(§2) CGEN-CL1 (1 mg dissolved in 2500 of Sodium bi-carbonate to a stock concentration of 4 mg/ml) was added to the wells in 500 of medium (final volume of 2000) as detailed in Table 2. The relative growth was normalized to controls where CGEN-CL1 was not added to wells.
(§3) 20 μl of MTT (3-(4,5-Dimethyl-2-thiazolyl)-2,5-diphenyl-2H-tetrazolium bromide) solution (Sigma Cat#M5655, lot#085k5322, 1 gr was dissolved in 200 ml H2O and filtered, giving a final concentration of 5 mg/ml) was added to each well and incubated for 4 hours at 37° C. after which the medium was vacuumed and 100 μl of DMSO was added to each well. Absorbance was measured in an ELISA reader at 492 nm.

[2] = system: SK-MEL melanoma cells; assay: MTT assay, growth of SK-MEL cells treated with CGEN-CL1; assay type: cell-based
Experimental: as §1
SK-MEL 5 cells were seeded at 10,000 cells per well in 150 μl of media (DMEM medium+5% FBS) in a 96 well plate.
as §2, §3

[3] = system: lung carcinoma cell line A549; assay: MTT assay, CGEN-CL1 and/or paclitaxel on A549 cells; assay type: cell-based, human
Experimental: as §3
(§4) A549, PC3 and MCF7 cells were seeded at 6000, 8000 and 10,000 cells per well respectively in 150 μl of media (DMEM medium+5% FBS) in 96 well plates.
(§5) Paclitaxel (Sigma T7402, Lot. 036k1217, Mw 853.9, 5 mg dissolved in 585 μl DMSO to a stock concentration of 10 mM, stored at −20° C.) and/or CGEN-CL1 (1 mg dissolved in 250 μl of sodium bi-carbonate to a stock concentration of 4 mg/ml) were added to the wells in 25 μl of medium (final volume of 200 μl) as detailed in Table 3. The relative growth was normalized to controls where neither paclitaxel nor CGEN-CL1 was added to wells.
(§6) An MTT assay was performed as described above in Example 2.

[4] = system: prostate adenocarcinoma cell line PC3; assay: MTT assay, CGEN-CL1 and/or paclitaxel on PC3 cells; assay type: cell-based
Experimental: as §3, §4, §5, §6

[5] = system: A549 human non-small cell lung cancer cells; assay: In vivo A549 mouse xenograft model, CGEN-CL1 with paclitaxel; set-up: species or system Balb/c Nu/Nu female mice; conditions: A549 tumor bearing BALB/c nu/nu mice; CGEN-CL1 sc daily around tumor + paclitaxel 15 mg/kg IP; vs paclitaxel and vehicle
Experimental: In order to test the in-vivo activity of CGEN-CL1, Balb/c Nu/Nu female mice (10 in each group) were inoculated with 5×10^6 A549 human non-small cell lung cancer cells. Treatment was initiated when tumors reached 400-500 mm^3. One group received 15 mg/kg of paclitaxell (IP once every three days) and CGEN-CL1 [SEQ ID NO:1] (daily injected sub-cutaneously (sc) at the surrounding of the tumor) whereas the second group received paclitaxel and saline (at the same dose and route of administration). Tumor volume was measured every three days.

[6] = system: A549 cells; assay: MTT viability assay of A549 cells, CGEN-CL1 pre-incubated with helix partner; assay type: cell-based, human; conditions: 150 nM CGEN-CL1 pre-incubated 30 min with equimolar SEQ ID NO:5
Experimental: In order to evaluate whether the two computationally identified α-helices (CGEN-CL1 (SEQ ID NO: 1) and its helix partner (SEQ ID NO: 5)) bind to each other in the Clusterin protein, a co-incubation of the two peptides was analyzed for its ability to eliminate the biological activity of CGEN-CL1.
Pre-incubation for 30 minutes of 150 nM CGEN-CL1 peptide (SEQ ID NO:1) with an equimolar concentration of the helix partner (SEQ ID NO:5) was carried out at room temperature. CGEN-CL1 peptide (SEQ ID NO:1) alone, or the helix partner (SEQ ID NO:5) alone or the pre-incubated CGEN-CL1 peptide (SEQ ID NO:1) with helix partner (SEQ ID NO:5) were used for viability assay of A549 cells, using MTT assay as described in Example 2 herein.

[7] = biological target: T1, recombinant human clusterin (Homo sapiens, UniProt P10909); assay: BIAcore SPR, CGEN-CL1 co-incubated with partner helix, binding to clusterin; conditions: CGEN-CL1 and SEQ ID NO:5, 10 μM each, preincubated 30 minutes
T1 construct: purchased Biovendor RD172034100
Experimental: Peptide-protein interaction was analyzed using surface plasmon resonance. Analysis of the interaction between CGEN-CL1 [SEQ ID NO:1] and recombinant human clusterin (Biovendor, Modrice, Czech republic cat no: RD172034100) was conducted using the BIAcore biosensor (Pharmacia Biosensor, Uppsala, Sweden). Clusterin was immobilized directly to a CM5 sensor chip (2000 resonance units (RU)). Solution containing either 10 μM of CGEN-CL1 [SEQ ID NO:1] peptide or a mixture of CGEN-CL1 and its partner helix (SEQ ID NO:5), 10 μM each, preincubated for 30 minutes at room temperature, was injected to the BIAcore. As a background, the solutions were also injected onto an empty flow cell with no immobilized ligand and the binding levels achieved were subtracted. Data was analyzed using BIAevaluation software.

[8] = system: PC3 cells; conditions: MTT
Experimental: PC3 cells were seeded at 8000 cells per well in 150 μl of media (DMEM medium+5% FBS) in a 96 well plate.

T1 sequence (P10909 23-449): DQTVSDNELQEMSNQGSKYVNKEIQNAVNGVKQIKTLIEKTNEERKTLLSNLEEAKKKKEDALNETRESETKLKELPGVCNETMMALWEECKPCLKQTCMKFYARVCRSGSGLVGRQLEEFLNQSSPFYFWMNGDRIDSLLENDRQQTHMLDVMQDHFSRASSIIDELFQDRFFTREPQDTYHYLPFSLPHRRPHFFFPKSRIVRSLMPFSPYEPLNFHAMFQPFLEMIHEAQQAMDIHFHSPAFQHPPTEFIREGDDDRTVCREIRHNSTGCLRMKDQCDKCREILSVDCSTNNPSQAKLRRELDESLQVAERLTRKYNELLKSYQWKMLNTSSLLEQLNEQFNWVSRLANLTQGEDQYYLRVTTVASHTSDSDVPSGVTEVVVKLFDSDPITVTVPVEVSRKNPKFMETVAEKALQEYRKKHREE

binding of CGEN-CL1 to recombinant Clusterin after co-incubation with partner helix [7]: completely abolished the binding
Compound: CC[C@H](C)[C@H](NC(=O)[C@H](CCCNC(=N)N)NC(=O)[C@H](CC(=O)O)NC(=O)CNC(=O)[C@H](CC(N)=O)NC(=O)[C@H](CCSC)NC(=O)[C@H](Cc1c[nH]c2ccccc12)NC(=O)[C@H](Cc1ccccc1)NC(=O)[C@H](Cc1ccc(O)cc1)NC(=O)[C@H](Cc1ccccc1)NC(C)=O)C(=O)N[C@@H](CC(=O)O)C(=O)N[C@@H](CO)C(=O)N[C@@H](CC(C)C)C(=O)N[C@@H](CC(C)C)C(=O)N[C@@H](CCC(=O)O)C(=O)N[C@@H](CC(N)=O)C(=O)N[C@@H](CC(=O)O)C(=O)N[C@@H](CCCNC(=N)N)C(=O)N[C@@H](CCC(N)=O)C(=O)N[C@@H](CCC(N)=O)C(=O)N[C@H](C(N)=O)[C@@H](C)O [CGEN-CL1] (Ac-FYFWMNGDRIDSLLENDRQQT-NH2)
growth inhibition as revealed by cellular viability [1]: evoked growth inhibition
growth inhibition as revealed by cellular viability [2]: evoked growth inhibition
CGEN-CL1 concentration that sensitizes cells to sub-minimal concentrations of paclitaxel (as little as) [3]: 1 nM
maximal effect (inhibition) in combination with paclitaxel ([3]; CGEN-CL1 + paclitaxel): 73%
maximal effect (inhibition) alone ([3]; single agent): 48%
CGEN-CL1 concentration that sensitized cells to paclitaxel at sub-minimal doses (as little as) [4]: 7 nM
growth inhibition ([4]; 60 nM CGEN-CL1 combined with 5 nM paclitaxel): same growth inhibition rates as the growth inhibition achieved by 45 nM of paclitaxel alone
growth inhibition relative to 45 nM of paclitaxel alone ([4]; 60 nM CGEN-CL1 combined with 45 nM paclitaxel): 1.5 fold
effect between CGEN-CL1 and paclitaxel ([4]; CGEN-CL1 at different concentrations with different doses of paclitaxel): synergistic effect
reduction in tumor volume [5]: 25-30%
biological effect (growth inhibition) of CGEN-CL1 in the presence of partner helix peptide [6]: abolished
concentration evoking the maximal effect (as little as) [8]: 15 nM
